A value given as a limit tells only on which side of the number the result lay.

The test system of experiment [1] is male mice of the ddY strain. Nature of the experiment: Hypoglycaemic activity in mice after glucose loading. The format is in vivo. The settings on record: Mus musculus, po, 0.5 h; blood sugar concentration vs positive control group; 10 mg/kg orally, 1.2 g/kg D-glucose orally 10 minutes later, blood collected 30 minutes after D-glucose; groups of 6 mice; read-out: Inhibitory rate, R%. The protocol:
In this experiment, the hypoglycaemic activity of various of the compounds of the invention was measured in mice after loading a large quantity of glucose. The test animals were male mice of the ddY strain having a body weight of from 25 to 27 g. Each experiment was carried out on a group of 6 mice.
Each test compound was administered orally in an amount of 10 mg/kg to the mouse followed, 10 minutes later, by the oral administration of 1.2 g/kg of D-glucose. 30 minutes after administration of the D-glucose, blood was collected from each mouse and the blood sugar.concentration was measured using a commercially available kit ("New Blood Sugar Test", a product of Boehringer-Mannheim Yamanouchi Pharmaceutical Co. Ltd,). The inhibitory rate, R, was calculated from the following formula: [formula] in which A represents the blood sugar concentration of a positive control group and B represents the blood sugar concentration of the group to which the test compound was administered. As a control, the experiment was also carried out with: the known hypoglycaemic agent, tolbutamide; 2-(2-aminoethylamino)-4-morpholinothieno[2,3-d]pyrimidine (named "VK-744"), a compound disclosed in German Offenlegungsschrift No. 2,200,764; and 4-isopropylamino-2-piperidinothieno[2,3-d]-pyrimidine (hereinafter referred to as "ICI-154"), a compound disclosed in U.S. Patent Specification No. 4,146,716.

For a further experiment, the system named is platelet aggregation. The experiment can be described thus: Inhibition of collagen-induced platelet aggregation in platelet-rich plasma. To be noted: rabbit PRP, incubated 2 minutes, collagen 5 ug/ml. Format: cell-based. As to the method: The ability of various compounds of the present invention to inhibit platelet aggregation was measured using rabbit blood.
9 volumes of blood collected from male rabbit hearts and 1 volume of a 3.8% w/v aqueous solution of sodium citrate were mixed, placed in a centrifugal separator and subjected to centrifugation under 150 G for 15 minutes to give a platelet-rich-plasma (PRP). 250 pl of this PRP were placed in a cuvette and incubated for 2 minutes with a test compound at the concentration shown in Table 2. To the mixture was then added a collagen solution to a final concentration of 5 ug/ml, to induce aggregation. The aggregation was measured using an aggregometer produced by Rikadenki Co. Ltd. The inhibitory rate R' was calculated from the following formula: [formula] in which A' represents the maximum aggregation rate when only a solvent was added and B' represents the maximum aggregation rate when the test compound was added.
For comparison, the experiment was also carried out using as the test compound VK-744, of German Offenlegungsschrift No. 2,200,764, and ICI-154 of U.S. Patent Specification No. 4,146,716.

The test system of experiment [2] is male mice of the ddY strain. Nature of the experiment: Diuretic activity in mice (urine volume and sodium ion concentration). Format: in vivo. The settings on record: urine collected for 2 hours after administration, increase over control group. The protocol: The animals employed in this test were male mice of the ddY strain, each having a body weight of from 26 g to 30 g. The mice were employed in groups of five for each test. Each test compound was suspended in a 0.3% carboxymethylcellulose saline solution and administered orally in the dose shown in Table 3 to the mouse. For the period of 2 hours after administration, the urine was collected and the urine volume and concentration of sodium ions were measured. […] The compounds tested were Compound No. 3 of the present invention and hydrochlorothiazide (abbreviated as "HCT").

Regarding `CNc1nc(N2CCNCC2)nc2sccc12` [compound 49, 4-Methylamino-2-(1-piperazinyl)thieno[2,3-d]pyrimidine], the inhibition in vivo at 10 mg/kg in experiment [1] turned out to be 32%.
In the case of `CCCCNC(=O)NS(=O)(=O)c1ccc(C)cc1` [tolbutamide, reference compound], in experiment [1], the inhibition in vivo at 10 mg/kg came to 2.8%.
Same read-out and setting: the result for `CNc1nc(N2CCNCC2)nc2scc(C)c12` [Compound No. 16, 5-Methyl-4-methylamino-2-(1-piperazinyl)thieno[2,3-d]-pyrimidine] reads 43.9%.
As for `CCc1cc2c(NCCN)nc(N3CCNCC3)nc2s1` [Compound No. 66, 4-(2-Aminoethylamino)-6-ethyl-2-(1-piperazinyl)-thieno[2,3-d]pyrimidine], the inhibition in vivo at 10 mg/kg in experiment [1] was 32.9%. In the experiment on platelet aggregation (concentration 3 x 10^-5 g/ml), the “Inhibitory rate, R'%” value was found to be 100%.
In the case of `CCc1cc2c(N)nc(N3CCN(C)CC3)nc2s1` [Compound No. 73, 4-Amino-6-ethyl-2-(4-methyl-1-piperazinyl)thieno-[2,3-d]pyrimidine], the inhibition in vivo at 10 mg/kg in experiment [1] was determined as 34.1%. Further, the “Inhibitory rate, R'%” value in the experiment on platelet aggregation (concentration 3 x 10^-5 g/ml) amounted to 100%.
In the case of `CCc1cc2c(NC)nc(N3CCNCC3)nc2s1` [Compound No. 21, 6-Ethyl-4-methylamino-2-(1-piperazinyl)thieno[2,3-d]-pyrimidine], the inhibition in vivo at 10 mg/kg in experiment [1] was determined as 20%.
For `NCCNc1nc(N2CCOCC2)c2ccsc2n1` [VK-744, 2-(2-aminoethylamino)-4-morpholinothieno[2,3-d]pyrimidine, reference compound], the inhibition in vivo at 10 mg/kg in experiment [1] came out at 19%.
Turning to `CCc1cc2c(N)nc(N3CCNCC3)nc2s1` [Compound No. 8, 4-Amino-6-ethyl-2-(1-piperazinyl)thieno[2,3-d]-pyrimidine], the inhibition in vivo at 10 mg/kg in experiment [1] is 34%.
For the compound `CCc1cc2c(N)nc(N3CCN(C=O)CC3)nc2s1` [Compound No. 84, 4-Amino-6-ethyl-2-(4-formyl-1-piperazinyl)thieno-[2,3-d]pyrimidine], the inhibition in vivo at 10 mg/kg in experiment [1] turned out to be 39.3%.
`CC(C)Nc1nc(N2CCCCC2)nc2sccc12` [ICI-154, 4-isopropylamino-2-piperidinothieno[2,3-d]-pyrimidine, reference compound]: the inhibition in vivo at 10 mg/kg in experiment [1] turned out to be 11%. The “Inhibitory rate, R'%” value in the experiment on platelet aggregation (concentration 10^-4 g/ml) is given as below 50%.
As to `Cc1csc2nc(N3CCNCC3)nc(N)c12` [Compound No. 3, 4-Amino-5-methyl-2-(1-piperazinyl)thieno[2,3-d]-pyrimidine], the inhibition in vivo at 10 mg/kg in experiment [1] was 32.4%. In addition, in the experiment with platelet aggregation (concentration 10^-5 g/ml), the “Inhibitory rate, R'%” value is 82.4%. Also, in experiment [2] (dose 100 mg/kg orally), the “Percent increase in Na^+ conc.” value was “+51%” and the “Percent increase in Urine volume” value is given as “+76%”.
In the case of `NS(=O)(=O)c1cc2c(cc1Cl)NCNS2(=O)=O` [HCT, hydrochlorothiazide, reference compound], in experiment [2] (dose 30 mg/kg orally), the “Percent increase in Na^+ conc.” value is “+93%” and the “Percent increase in Urine volume” value is “+43%”.
As to `CCc1cc2c(NCCO)nc(N3CCNCC3)nc2s1` [Compound No. 54, 6-Ethyl-4-(2-hydroxyethylamino)-2-(1-piperazinyl)-thieno[2,3-d]pyrimidine], the “Inhibitory rate, R'%” value with platelet aggregation (concentration 10^-6 g/ml) was found to be 66.1%.
The same measure, in the same setting: the result for `CCc1cc2c(N(CCO)CCO)nc(N3CCNCC3)nc2s1` [compound 62, 4-Bis(2-hydroxyethyl)amino-6-ethyl-2-(1-piperazinyl)-thieno[2,3-d]pyrimidine] reads 65.3%.
As for `CCc1cc2c(N(CC)CC)nc(N3CCNCC3)nc2s1` [Compound No. 39, 4-Diethylamino-6-ethyl-2-(1-piperazinyl)thieno[2,3-d]-pyrimidine], the inhibition in vivo at 10 mg/kg in experiment [1] worked out at 19.4%.
As for `OCCN(CCO)c1nc(N2CCNCC2)nc2sc3c(c12)CCCC3` [Compound No. 197, 4-Bis(2-hydroxyethyl)amino-2-(1-piperazinyl)-5,6-tetramethylenethieno[2,3-d]pyrimidine], the “Inhibitory rate, R'%” value with platelet aggregation (concentration 10^-5 g/ml) amounted to 87%.
As for `CCc1cc2c(NC)nc(N3CCN(C=O)CC3)nc2s1` [Compound No. 99, 6-Ethyl-2-(4-formyl-1-piperazinyl)-4-methylaminothieno-[2,3-d]pyrimidine], in experiment [1], the inhibition in vivo at 10 mg/kg was 22.1%.

Values taken from patent EP0082023A2, “Thienopyrimidine derivatives, their preparation and their medical use” (SANKYO COMPANY LIMITED, priority 1981, dated 1983).
